From PubChem BioAssay (NCI) come the findings set out here.

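Dose response: 5 concentrations. Exposure: 48 h. Format: 96-well plates. Endpoint: linear interpolation; highest concentration if not reached. GI50: concentration for 50% inhibition of growth. TGI: concentration producing complete growth inhibition.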 Where only a bound is given, the exact number is not on record here.

Among the test systems are LOX IMVI melanoma; DU-145 prostate; UACC-62 melanoma; SNB-19 CNS; SW-620 colon; HL-60(TB) leukemia; SK-MEL-28 melanoma; TK-10 renal; RPMI-8226 leukemia; NCI-H522 lung.
Test in all cases: NCI tumour cell line growth inhibition, 48 h

With `COc1ccc2c(c1)C(C)Cc1c(ncnc1-n1cnc3ccccc31)N2C` (stereo unspecified), the GI50 in the assay on LOX IMVI melanoma was 0.602 µM; in the assay with DU-145 prostate, 0.439 µM; in the assay on UACC-62 melanoma it was 0.735 µM; with SNB-19 CNS it was 0.695 µM; with SW-620 colon, 0.379 µM; in the assay with HL-60(TB) leukemia, 0.352 µM. Besides, the GI50 in the assay on SK-MEL-28 melanoma was 10.1 µM; in the assay on TK-10 renal, 0.793 µM; in the assay on RPMI-8226 leukemia it was 0.556 µM; with NCI-H522 lung, 0.254 µM. Also, the TGI was 18.2 µM in the assay on LOX IMVI melanoma; 10.3 µM with DU-145 prostate; 21.2 µM with UACC-62 melanoma; 27.5 µM in the assay with SNB-19 CNS; 17.8 µM in the assay on SW-620 colon; 3.74 µM with HL-60(TB) leukemia. Besides, the TGI in the assay with SK-MEL-28 melanoma worked out at 22.9 µM; in the assay with TK-10 renal, 37.1 µM; in the assay on RPMI-8226 leukemia, 27.6 µM; in the assay with NCI-H522 lung, 0.744 µM.
In the case of `COC(=O)C(=O)CC(=O)c1cccc(OC)c1`, the TGI in the assay with LOX IMVI melanoma, with DU-145 prostate, in the assay with UACC-62 melanoma, with SNB-19 CNS, in the assay with SW-620 colon and in the assay on HL-60(TB) leukemia was greater than 100 µM in each case. In addition, the TGI with SK-MEL-28 melanoma, in the assay with TK-10 renal and in the assay with RPMI-8226 leukemia was greater than 100 µM each time.
Turning to `COc1cc2c3c(n(CCCN(CCO)CCO)c(=O)c2cc1OC)-c1cc2c(cc1C3=O)OCO2`, the GI50 in the assay with LOX IMVI melanoma was less than 0.01 µM; in the assay on DU-145 prostate, less than 0.01 µM; in the assay with UACC-62 melanoma, less than 0.01 µM; with SNB-19 CNS, 0.603 µM; in the assay with SW-620 colon, less than 0.01 µM; in the assay on HL-60(TB) leukemia it was less than 0.01 µM. The GI50 was 2.27 µM in the assay on SK-MEL-28 melanoma, 1.23 µM with TK-10 renal and less than 0.01 µM with RPMI-8226 leukemia. Also, the TGI in the assay on LOX IMVI melanoma was 0.158 µM; in the assay on DU-145 prostate, 1.27 µM; in the assay on UACC-62 melanoma, 0.503 µM; in the assay on SNB-19 CNS it was greater than 35.5 µM; in the assay on SW-620 colon, 1.71 µM; in the assay on HL-60(TB) leukemia it was 2.29 µM. For the same compound, the TGI in the assay on SK-MEL-28 melanoma was 26.6 µM; in the assay on TK-10 renal it was 6.02 µM; in the assay on RPMI-8226 leukemia, 0.207 µM.
For the compound `O=C1/C(=C/N2N=C(c3ccc4ccccc4c3)CC2c2ccccc2O)SC(=S)N1c1cccnc1` (stereo unspecified), the GI50 in the assay on LOX IMVI melanoma is 1.24 µM; in the assay on DU-145 prostate, 1.5 µM; in the assay on UACC-62 melanoma, 4.06 µM; in the assay with SNB-19 CNS, 3.85 µM; in the assay on SW-620 colon, 0.365 µM; with HL-60(TB) leukemia it was 0.616 µM. In addition, the figures for the GI50 with TK-10 renal and in the assay with RPMI-8226 leukemia were 1.84 µM and 0.391 µM, respectively. For the same compound, the TGI with LOX IMVI melanoma, in the assay with DU-145 prostate, in the assay on UACC-62 melanoma, in the assay on SNB-19 CNS, in the assay with SW-620 colon and in the assay on HL-60(TB) leukemia was greater than 100 µM throughout. The TGI in the assay with TK-10 renal and in the assay on RPMI-8226 leukemia was greater than 100 µM in each case.
Turning to `N#CC(C#N)=C1CCCOc2c1ccc1ccccc21`, the GI50 with DU-145 prostate was greater than 100 µM; with UACC-62 melanoma it was greater than 100 µM; in the assay with SNB-19 CNS, 94.3 µM; in the assay on SW-620 colon it was greater than 100 µM; in the assay with HL-60(TB) leukemia it was 16.7 µM; with SK-MEL-28 melanoma, greater than 100 µM. Besides, the GI50 in the assay with TK-10 renal was 42.9 µM; in the assay with RPMI-8226 leukemia it was 24.5 µM; in the assay on NCI-H522 lung, greater than 100 µM. Moreover, the TGI was greater than 100 µM in the assay with DU-145 prostate; greater than 100 µM in the assay with UACC-62 melanoma; greater than 100 µM in the assay with SNB-19 CNS; greater than 100 µM in the assay on SW-620 colon; 36 µM in the assay on HL-60(TB) leukemia; greater than 100 µM with SK-MEL-28 melanoma. Besides, the TGI in the assay on TK-10 renal is greater than 100 µM; in the assay on RPMI-8226 leukemia, 65.1 µM; in the assay on NCI-H522 lung, greater than 100 µM.
As for `O=C(NNc1cnccn1)c1nc2cc(F)ccc2n2cccc12`, the GI50 with DU-145 prostate was 0.745 µM; in the assay with UACC-62 melanoma, 0.7 µM; in the assay with SNB-19 CNS, 0.7 µM; in the assay on SW-620 colon, 0.397 µM; with HL-60(TB) leukemia, 0.346 µM; in the assay with SK-MEL-28 melanoma it was 1.08 µM. In addition, the GI50 in the assay on TK-10 renal is 0.647 µM; in the assay on RPMI-8226 leukemia, 0.518 µM; in the assay with NCI-H522 lung, 0.281 µM. Besides, the TGI is greater than 100 µM in the assay on DU-145 prostate; greater than 100 µM with UACC-62 melanoma; greater than 100 µM in the assay on SNB-19 CNS; greater than 100 µM with SW-620 colon; 2.82 µM in the assay on HL-60(TB) leukemia; greater than 100 µM in the assay on SK-MEL-28 melanoma. In addition, the TGI was greater than 100 µM in the assay with TK-10 renal, greater than 100 µM in the assay on RPMI-8226 leukemia and 0.963 µM in the assay on NCI-H522 lung.
`NC(=O)CNc1ccc([As]=[As]c2ccc(NCC(N)=O)cc2)cc1` (stereo unspecified): the GI50 with LOX IMVI melanoma was 6.03 µM; in the assay on DU-145 prostate, 6.48 µM; with UACC-62 melanoma it was 4.2 µM; in the assay with SNB-19 CNS, 4.7 µM; in the assay on SW-620 colon, 2.54 µM; with HL-60(TB) leukemia, 1.75 µM. Also, the results for the GI50 in the assay with SK-MEL-28 melanoma and with RPMI-8226 leukemia were 4.01 µM and 2.61 µM, respectively. The TGI with LOX IMVI melanoma turned out to be 23.8 µM; in the assay on DU-145 prostate, 35 µM; with UACC-62 melanoma it was 18.2 µM; in the assay on SNB-19 CNS, 18.2 µM; in the assay with SW-620 colon, 15.4 µM; with HL-60(TB) leukemia, 9.26 µM. The TGI in the assay on SK-MEL-28 melanoma was 17.6 µM; in the assay on RPMI-8226 leukemia, 10.8 µM.
In the case of `Cn1cc(-c2csc(-c3cn(C)c4ccc(F)cc34)n2)c2cnccc21`, the GI50 is 1.74 µM with DU-145 prostate; 1.74 µM in the assay with UACC-62 melanoma; 1.82 µM in the assay on SNB-19 CNS; 1.88 µM in the assay with SW-620 colon; 1.93 µM with HL-60(TB) leukemia; 1.79 µM with SK-MEL-28 melanoma. For the same compound, the results for the GI50 with TK-10 renal, in the assay with RPMI-8226 leukemia and in the assay with NCI-H522 lung were 1.56 µM, 1.98 µM and 1.77 µM, respectively. For the same compound, the TGI in the assay with DU-145 prostate is 3.16 µM; in the assay with UACC-62 melanoma, 3.2 µM; with SNB-19 CNS, 3.3 µM; with SW-620 colon, 3.59 µM; with HL-60(TB) leukemia, 3.87 µM; with SK-MEL-28 melanoma, 3.22 µM. Besides, the TGI in the assay on TK-10 renal turned out to be 2.98 µM; in the assay on RPMI-8226 leukemia it was 4.14 µM; in the assay on NCI-H522 lung, 3.34 µM.
`COc1cc(OC)c2sc(-c3ccc(-n4cncc4-c4cc(OC)c(OC)c(OC)c4)cc3)nc2c1`: the GI50 with LOX IMVI melanoma was 5.4 µM; with DU-145 prostate, greater than 100 µM; with UACC-62 melanoma, 4.14 µM; in the assay with SNB-19 CNS it was greater than 100 µM; in the assay with SW-620 colon, 5.96 µM; in the assay with HL-60(TB) leukemia, 3.3 µM. Also, the GI50 in the assay on TK-10 renal was 9.4 µM; in the assay on RPMI-8226 leukemia, 5.39 µM; with NCI-H522 lung, 3.27 µM. Besides, the TGI in the assay with LOX IMVI melanoma, with DU-145 prostate, in the assay on UACC-62 melanoma, in the assay with SNB-19 CNS, in the assay with SW-620 colon and with HL-60(TB) leukemia was greater than 100 µM throughout. The TGI in the assay with TK-10 renal, in the assay on RPMI-8226 leukemia and in the assay on NCI-H522 lung was greater than 100 µM each time.
